Laboratory results reported in paper PMC10174317, “^18F-labeled FGFR1 peptide: a new PET probe for subtype FGFR1 receptor imaging” (Frontiers in Oncology, 2023).
Where a SMILES comes first, the peptide text is derived from it. The star is where a group is joined. NOTA = O=C(O)CN1CCN(CC(=O)O)CCN(CC(=O)*)CC1; AEEA = NCCOCCOCC(=O)O

What was measured:
[1] = Micro-PET/CT biodistribution in RT-112-blocked xenografts; type: in vivo, BALB/c nude mice; conditions: female, BALB/c nude, mouse, iv, total radioactivity, n=5; for tissue uptake at 0.5 h / tissue uptake at 1 h / tissue uptake at 2 h: RT-112-blocked xenografts (tracer mixed with 200-fold, 1.58 mg, unlabeled peptide), 11.1 MBq tail vein, micro-PET/CT ROI, mean ± SD; for tissue uptake at 0.5 h: 30 min post-injection; for tissue uptake at 1 h: 60 min post-injection
Experimental: (§1) All animal experiments were carried out in accordance with the Laboratory Animal Ethical Review of Animal Guidelines of China. BALB/c nude mice (sex, female; age, 4 weeks, body weight range, 19-21 g; China) were used for this study. Four cell lines (2*10^7 cells/nude mouse) were subcutaneously injected into the right forelimb to induce solid tumors. All xenograft nude mice were housed in laminar flow cabinets in a specific pathogen-free (SPF) environment and were provided ad libitum access to food and water at the Laboratory Animal Center of the Fourth Hospital of Hebei Medical University (China). The indication for micro-PET/CT imaging was xenografts with a tumor volume of 50-130 mm^3. All animal experiments strictly adhered to the Principles of the Laboratory Animal Ethical Committee of the Fourth Hospital Hebei Medical University (No. 2020016).
(§2) Xenograft mice (n=5) were fastly injected of 200 µl of [^18F]F-FGFR1 (11.1 MBq) through tail vein. For the in vivo blocking study, RT-112 (FGFR1-high expression) tumor-bearing mice (n = 5) were injected with a tracer that was mixed with 200-fold (1.58 mg) unlabeled peptide to saturate the receptors in the tumors. Mice were anesthetized via 3% isoflurane inhalation (RWD Life Science Inc. China) for induction and 2% isoflurane inhalation for maintenance. Micro-PET/CT imaging was performed on a micro-PET/SPECT/CT machine (NOVEL MEDICAL Equipment Ltd. China). Whole-body scans were performed 30, 60 and 120 min after tracer administration. The CT scanning parameters were 80 kV, 0.5 mA, 2000 ms/frames, and 360 frames; the images were reconstructed with a 512*512 matrix and a slice thickness of 0.18 mm. PET images were acquired with a 140*140 matrix and 10 min of total acquisition time. Reconstructed images were processed with the comprehensive image analysis software Pmod v4.201 (PMOD Technologies LLC. Switzerland). The biodistribution of the major organs (brain, heart, lung, liver, kidney, bone and muscle) and tumor were analyzed by manually outlining the regions of interest (ROIs) of the entire organs and tissue at each time point of the micro-PET/CT scan. The radioactivity accumulated in bone and muscle was measured in the limbs without xenograft tumors.

[2] = test system: RT-112, A549, SNU-16 and Calu-3 cells; test: Cellular internalization study; type: cell-based, human; conditions: acid wash with acetate buffer pH 2.5, four cell lines, P > 0.5, n = 6
Experimental: Internalization studies were performed according to the planned experiments. Thirty microliters (111 KBq, 1.81-2.53 GBq/μmol) of [^18F]F-FGFR1 was incubated with fresh medium in 24-well plates. The medium was discarded at predetermined time points, and the wells were rinsed twice with 1000 µl of PBS. Then, 1000 µl of acetate buffer (0.2 M acetic acid/0.5 M NaCl, pH 2.5) was added to the wells to remove surface-bound radioactivity. After removing the acetate buffer, the cells were washed twice with 1000 µl of PBS. The acetate buffer and PBS were collected and marked as Cs. The radioactivity of the collected cell lysate was measured and defined as Cin. The internalization rate was assessed in a similar method to the cell uptake rate calculation: Cin/(Cin + Cs).

[3] = In vitro stability in normal saline (RP-HPLC); type: physicochemical; conditions: 37°C, 1, 2, 4 and 6 h
Experimental: The in vitro and in vivo stability of [^18F]F-FGFR1 was evaluated by RP-HPLC analysis. […] The radiochemical purity of the final compounds was determined by RP-HPLC.

[4] = Micro-PET/CT biodistribution in Calu-3 xenografts; type: in vivo, BALB/c nude mice; conditions: female, BALB/c nude, mouse, iv, total radioactivity, 11.1 MBq tail vein, micro-PET/CT ROI, mean ± SD; for tissue uptake at 0.5 h: 30 min post-injection; for tissue uptake at 1 h: 60 min post-injection; for tissue uptake at 2 h: 120 min post-injection
Experimental: as §1, §2

[5] = Micro-PET/CT biodistribution in SNU-16 xenografts; type: in vivo, BALB/c nude mice; conditions: female, BALB/c nude, mouse, iv, total radioactivity, 11.1 MBq tail vein, micro-PET/CT ROI, mean ± SD; for tissue uptake at 0.5 h: 30 min post-injection; for tissue uptake at 1 h: 60 min post-injection; for tissue uptake at 2 h: 120 min post-injection
Experimental: as §1, §2

[6] = bone, read-out: Biodistribution, Bone
[7] = brain, read-out: Biodistribution, Brain
[8] = heart, read-out: Biodistribution, Heart
[9] = kidney, read-out: Biodistribution, Kidney
[10] = liver, read-out: Biodistribution, Liver
[11] = lung, read-out: Biodistribution, Lung
[12] = muscle, read-out: Biodistribution, Muscle
[13] = tumor, read-out: Biodistribution, Tumor
[14] = bone, n=5, read-out: Biodistribution, Bone
[15] = brain, n=5, read-out: Biodistribution, Brain
[16] = heart, n=5, read-out: Biodistribution, Heart
[17] = kidney, n=5, read-out: Biodistribution, Kidney
[18] = liver, n=5, read-out: Biodistribution, Liver
[19] = lung, n=5, read-out: Biodistribution, Lung
[20] = muscle, n=5, read-out: Biodistribution, Muscle
[21] = tumor, n=5, read-out: Biodistribution, Tumor

CC(C)C[C@H](NC(=O)[C@H](CO)NC(=O)[C@H](CCCCN)NC(=O)[C@H](Cc1c[nH]c2ccccc12)NC(=O)[C@H](CCC(=O)O)NC(=O)[C@H](C)NC(=O)[C@H](CCCCN)NC(=O)COCCOCCNC(=O)CN1CCN(CC(=O)O)CCN(CC(=O)O)CC1)C(=O)NCC(=O)N[C@@H](CCC(=O)O)C(=O)N[C@@H](CCC(=O)O)C(=O)N[C@@H](C)C(=O)N[C@@H](Cc1c[nH]c2ccccc12)C(=O)N[C@@H](Cc1c[nH]cn1)C(=O)N[C@@H](CO)C(=O)N[C@@H](CCCCN)C(=O)O [[^18F]F-FGFR1] ({NOTA-AEEA}-KAEWKSLGEEAWHSK-OH; N-terminus and C-terminus assumed)
tissue uptake at 0.5 h [1, 6]: 0.31 ± 0.07 %ID/g
tissue uptake at 1 h [1, 6]: 0.37 ± 0.04 %ID/g
tissue uptake at 2 h ([1]; bone, 120 min post-injection, read-out: Biodistribution, Bone): 0.35 ± 0.07 %ID/g
tissue uptake at 0.5 h [1, 7]: 0.61 ± 0.03 %ID/g
tissue uptake at 1 h [1, 7]: 0.61 ± 0.06 %ID/g
tissue uptake at 2 h ([1]; brain, 120 min post-injection, read-out: Biodistribution, Brain): 0.71 ± 0.1 %ID/g
tissue uptake at 0.5 h [1, 8]: 0.74 ± 0.08 %ID/g
tissue uptake at 1 h [1, 8]: 0.7 ± 0.07 %ID/g
tissue uptake at 2 h ([1]; heart, 120 min post-injection, read-out: Biodistribution, Heart): 0.75 ± 0.14 %ID/g
tissue uptake at 0.5 h [1, 9]: 9.35 ± 0.82 %ID/g
tissue uptake at 1 h [1, 9]: 7.31 ± 0.87 %ID/g
tissue uptake at 2 h ([1]; kidney, 120 min post-injection, read-out: Biodistribution, Kidney): 3.37 ± 0.54 %ID/g
tissue uptake at 0.5 h [1, 10]: 0.67 ± 0.16 %ID/g
tissue uptake at 1 h [1, 10]: 0.51 ± 0.09 %ID/g
tissue uptake at 2 h ([1]; liver, 120 min post-injection, read-out: Biodistribution, Liver): 0.5 ± 0.09 %ID/g
tissue uptake at 0.5 h [1, 11]: 0.6 ± 0.05 %ID/g
tissue uptake at 1 h [1, 11]: 0.59 ± 0.04 %ID/g
tissue uptake at 2 h ([1]; lung, 120 min post-injection, read-out: Biodistribution, Lung): 0.51 ± 0.07 %ID/g
tissue uptake at 0.5 h [1, 12]: 0.26 ± 0.03 %ID/g
tissue uptake at 1 h [1, 12]: 0.29 ± 0.03 %ID/g
tissue uptake at 2 h ([1]; muscle, 120 min post-injection, read-out: Biodistribution, Muscle): 0.27 ± 0.02 %ID/g
tissue to tissue ratio at 2 h ([1]; tumor and liver, RT-112-blocked xenografts (200-fold unlabeled peptide), 120 min post-injection, micro-PET/CT, read-out: Tumor to liver ratio (T/L)): 0.85 ± 0.22
tissue uptake at 0.5 h [1, 13]: 0.4 ± 0.02 %ID/g
tissue uptake at 1 h [1, 13]: 0.39 ± 0.03 %ID/g
tissue uptake at 2 h ([1]; tumor, 120 min post-injection, read-out: Biodistribution, Tumor): 0.4 ± 0.02 %ID/g
Internalization fraction Cin/(Cin + Cs) [2]: not significantly different in the four cell lines
Radiochemical purity after incubation (in vitro stability) [3]: exceeded 90%
tissue uptake at 0.5 h [4, 14]: 0.42 ± 0.05 %ID/g
tissue uptake at 1 h [4, 14]: 0.36 ± 0.05 %ID/g
tissue uptake at 2 h [4, 14]: 0.37 ± 0.04 %ID/g
tissue uptake at 0.5 h [4, 15]: 0.6 ± 0.04 %ID/g
tissue uptake at 1 h [4, 15]: 0.66 ± 0.06 %ID/g
tissue uptake at 2 h [4, 15]: 0.67 ± 0.18 %ID/g
tissue uptake at 0.5 h [4, 16]: 0.79 ± 0.08 %ID/g
tissue uptake at 1 h [4, 16]: 0.8 ± 0.07 %ID/g
tissue uptake at 2 h [4, 16]: 0.79 ± 0.17 %ID/g
tissue uptake at 0.5 h [4, 17]: 8.47 ± 0.83 %ID/g
tissue uptake at 1 h [4, 17]: 7.48 ± 0.6 %ID/g
tissue uptake at 2 h [4, 17]: 3.02 ± 0.69 %ID/g
tissue uptake at 0.5 h [4, 18]: 1.4 ± 0.07 %ID/g
tissue uptake at 1 h [4, 18]: 1.54 ± 0.12 %ID/g
tissue uptake at 2 h [4, 18]: 1.33 ± 0.17 %ID/g
tissue uptake at 0.5 h [4, 19]: 0.62 ± 0.08 %ID/g
tissue uptake at 1 h [4, 19]: 0.54 ± 0.06 %ID/g
tissue uptake at 2 h [4, 19]: 0.48 ± 0.04 %ID/g
tissue uptake at 0.5 h [4, 20]: 0.28 ± 0.04 %ID/g
tissue uptake at 1 h [4, 20]: 0.25 ± 0.03 %ID/g
tissue uptake at 2 h [4, 20]: 0.3 ± 0.04 %ID/g
tissue uptake at 0.5 h [4, 21]: 0.59 ± 0.08 %ID/g
tissue uptake at 1 h [4, 21]: 0.58 ± 0.06 %ID/g
tissue uptake at 2 h [4, 21]: 0.43 ± 0.03 %ID/g
tissue uptake at 0.5 h [5, 14]: 0.38 ± 0.1 %ID/g
tissue uptake at 1 h [5, 14]: 0.37 ± 0.05 %ID/g
tissue uptake at 2 h [5, 14]: 0.41 ± 0.02 %ID/g
tissue uptake at 0.5 h [5, 15]: 0.56 ± 0.06 %ID/g
tissue uptake at 1 h [5, 15]: 0.6 ± 0.07 %ID/g
tissue uptake at 2 h [5, 15]: 0.56 ± 0.1 %ID/g
tissue uptake at 0.5 h [5, 16]: 0.7 ± 0.09 %ID/g
tissue uptake at 1 h [5, 16]: 0.62 ± 0.09 %ID/g
tissue uptake at 2 h [5, 16]: 0.55 ± 0.06 %ID/g
tissue uptake at 0.5 h [5, 17]: 8.04 ± 0.97 %ID/g
tissue uptake at 1 h [5, 17]: 7.43 ± 0.83 %ID/g
tissue uptake at 2 h [5, 17]: 4.23 ± 0.7 %ID/g
tissue uptake at 0.5 h [5, 18]: 1.54 ± 0.11 %ID/g
tissue uptake at 1 h [5, 18]: 1.57 ± 0.12 %ID/g
tissue uptake at 2 h [5, 18]: 1.45 ± 0.1 %ID/g
tissue uptake at 0.5 h [5, 19]: 0.67 ± 0.08 %ID/g
tissue uptake at 1 h [5, 19]: 0.6 ± 0.03 %ID/g
tissue uptake at 2 h [5, 19]: 0.46 ± 0.09 %ID/g
tissue uptake at 0.5 h [5, 20]: 0.27 ± 0.06 %ID/g
tissue uptake at 1 h [5, 20]: 0.27 ± 0.03 %ID/g
tissue uptake at 2 h [5, 20]: 0.31 ± 0.02 %ID/g
tissue uptake at 0.5 h [5, 21]: 0.66 ± 0.05 %ID/g
tissue uptake at 1 h [5, 21]: 0.6 ± 0.06 %ID/g
tissue uptake at 2 h [5, 21]: 0.45 ± 0.04 %ID/g
